Measurements published in ChEMBL document CHEMBL1122312, “Synthesis and 5-lipoxygenase inhibitory activities of eicosanoid compounds” (J Med Chem, 1983).

System: Arachidonate 5-lipoxygenase (Cavia porcellus)
Assay: Inhibitory activity against 5-lipoxygenase at a dose of 0.1 mM

inhibition [%]	SMILES
5	CCCCC/C=C\C/C=C\C/C=C\CC1CC1CCCC(=O)O (stereo not given)
34	CCCCC/C=C\C/C=C\C/C=C\C1(/C=C\CCCC(=O)O)CC1
93	CCCCC/C=C\C/C=C\C/C=C\C=C\C(=O)CCCC(=O)OC
86	CCCCC/C=C\C\C=C/C=C/C=C/C1CC1CCCCC(=O)O (stereo not given)
78	CCCCC/C=C\C\C=C/C=C/C=C/[C@@H]1O[C@H]1CCCC(=O)O
1	CCCCCCCCCCCCCCC1CC1CCCC(=O)O (stereo in doubt; 25)
47	CCCCC/C=C\C/C=C\C/C=C\C=C\C(CO)CCCC(=O)O (stereo not given)
49	CCCCCCCCCCCCCCC1CC1CCCC(=O)O (stereo in doubt; 23)
98	CCCCC/C=C\C\C=C/C=C/C=C/C1CC1CCCC(=O)O (stereo not given)

SMILES	inhibition [%]
CCCCC/C=C\C\C=C/C=C/C=C/C1SC1CCCC(=O)OC (stereo not given)	60
